Data as given in patent publication US20240016784A1, “Y BOX BINDING PROTEIN 1 INHIBITORS” (Oregon Health & Science University, priority 2020, published 2024).

How the values were obtained:
Experiment in all cases: NCI-60 cell line panel
Type in all cases: cell-based
[1] = system: U251; settings: Homo sapiens, U-251, 48 hours
Excerpt: (§1) FIG. 17: Assay of SU056 in NCI-60 cell line panel.

[2] = system: HOP-62; settings: Homo sapiens, 48 hours
Excerpt: as §1

[3] = system: HOP-92; settings: Homo sapiens, 48 hours
Excerpt: as §1

[4] = system: HCC-2998; settings: Homo sapiens, 48 hours
Excerpt: as §1

[5] = system: CCRF-CEM; settings: Homo sapiens, 48 hours
Excerpt: as §1

[6] = system: SN12C; settings: Homo sapiens, 48 hours
Excerpt: as §1

[7] = system: MOLT-4; settings: Homo sapiens, 48 hours
Excerpt: as §1

[8] = system: OVCAR-5; settings: Homo sapiens, 48 hours
Excerpt: as §1

[9] = system: HT29; settings: Homo sapiens, HT-29, 48 hours
Excerpt: as §1

[10] = system: OVCAR-3; settings: Homo sapiens, 48 hours
Excerpt: as §1

[11] = system: CAKI-1; settings: Homo sapiens, 48 hours
Excerpt: as §1

[12] = system: UO-31; settings: Homo sapiens, 48 hours
Excerpt: as §1

[13] = system: SNB-75; settings: Homo sapiens, 48 hours
Excerpt: as §1

[14] = system: SK-MEL-28; settings: Homo sapiens, 48 hours
Excerpt: as §1

[15] = system: IGROV1; settings: Homo sapiens, IGROV-1, 48 hours
Excerpt: as §1

[16] = system: SW-620; settings: Homo sapiens, 48 hours
Excerpt: as §1

[17] = system: RPMI-8226; settings: Homo sapiens, 48 hours
Excerpt: as §1

[18] = system: COLO 205; settings: Homo sapiens, 48 hours
Excerpt: as §1

[19] = system: NCI-H322M; settings: Homo sapiens, 48 hours
Excerpt: as §1

[20] = system: OVCAR-8; settings: Homo sapiens, 48 hours
Excerpt: as §1

[21] = system: LOX IMVI; settings: Homo sapiens, 48 hours
Excerpt: as §1

[22] = system: A549/ATCC; settings: Homo sapiens, 48 hours
Excerpt: as §1

[23] = system: SR; settings: Homo sapiens, 48 hours
Excerpt: as §1

[24] = system: T-47D; settings: Homo sapiens, T47D, 48 hours
Excerpt: as §1

[25] = system: SK-MEL-5; settings: Homo sapiens, 48 hours
Excerpt: as §1

[26] = system: MDA-MB-435; settings: Homo sapiens, 48 hours
Excerpt: as §1

[27] = system: SF-268; settings: Homo sapiens, 48 hours
Excerpt: as §1

[28] = system: MDA-MB-468; settings: Homo sapiens, 48 hours
Excerpt: as §1

[29] = system: HCT-116; settings: Homo sapiens, 48 hours
Excerpt: as §1

[30] = system: 786-0; settings: Homo sapiens, 48 hours
Excerpt: as §1

[31] = system: ACHN; settings: Homo sapiens, 48 hours
Excerpt: as §1

[32] = system: NCI-H460; settings: Homo sapiens, 48 hours
Excerpt: as §1

[33] = system: SNB-19; settings: Homo sapiens, 48 hours
Excerpt: as §1

[34] = system: SK-MEL-2; settings: Homo sapiens, 48 hours
Excerpt: as §1

[35] = system: TK-10; settings: Homo sapiens, 48 hours
Excerpt: as §1

[36] = system: NCI/ADR-RES; settings: Homo sapiens, 48 hours
Excerpt: as §1

[37] = system: NCI-H226; settings: Homo sapiens, 48 hours
Excerpt: as §1

[38] = system: OVCAR-4; settings: Homo sapiens, 48 hours
Excerpt: as §1

[39] = system: PC-3; settings: Homo sapiens, 48 hours
Excerpt: as §1

[40] = system: BT-549; settings: Homo sapiens, 48 hours
Excerpt: as §1

[41] = system: K-562; settings: Homo sapiens, K562, 48 hours
Excerpt: as §1

[42] = system: MDA-MB-231/ATCC; settings: Homo sapiens, 48 hours
Excerpt: as §1

[43] = system: UACC-257; settings: Homo sapiens, 48 hours
Excerpt: as §1

[44] = system: NCI-H522; settings: Homo sapiens, 48 hours
Excerpt: as §1

[45] = system: A498; settings: Homo sapiens, 48 hours
Excerpt: as §1

[46] = system: HS 578T; settings: Homo sapiens, 48 hours
Excerpt: as §1

[47] = system: DU-145; settings: Homo sapiens, 48 hours
Excerpt: as §1

Compound: O=C1OCC2=C1C(c1cccc(F)c1)c1cc3c(cc1N2CCO)OCO3 (centres unmarked) [SU056, 9-(3-fluorophenyl)-5-(2-hydroxyethyl)-6,9-dihydro-[1,3]dioxolo[4,5-g]furo[3,4-b]quinolin-8(5H)-one]
- IC50 [1]: 2500 nM
- IC50 [2]: 2190 nM
- IC50 [3]: 3100 nM
- IC50 [4]: 7060 nM
- IC50 [5]: 2370 nM
- IC50 [6]: 3050 nM
- IC50 [7]: 3020 nM
- IC50 [8]: 4330 nM
- IC50 [9]: 1520 nM
- IC50 [10]: 1270 nM
- IC50 [11]: 1240 nM
- IC50 [12]: 2880 nM
- IC50 [13]: 820 nM
- IC50 [14]: 20300 nM
- IC50 [15]: 4190 nM
- IC50 [16]: 1650 nM
- IC50 [17]: 2280 nM
- IC50 [18]: 1460 nM
- IC50 [19]: 4010 nM
- IC50 [20]: 3180 nM
- IC50 [21]: 2350 nM
- IC50 [22]: 8740 nM
- IC50 [23]: 294 nM
- IC50 [24]: 2180 nM
- IC50 [25]: 1260 nM
- IC50 [26]: 187 nM
- IC50 [27]: 3200 nM
- IC50 [28]: 1120 nM
- IC50 [29]: 1530 nM
- IC50 [30]: 1860 nM
- IC50 [31]: 3030 nM
- IC50 [32]: 2080 nM
- IC50 [33]: 3000 nM
- IC50 [34]: 2460 nM
- IC50 [35]: 15600 nM
- IC50 [36]: 2020 nM
- IC50 [37]: 50000 nM
- IC50 [38]: 46800 nM
- IC50 [39]: 1460 nM
- IC50 [40]: 1460 nM
- IC50 [41]: 353 nM
- IC50 [42]: 3090 nM
- IC50 [43]: 50000 nM
- IC50 [44]: 2590 nM
- IC50 [45]: 1110 nM
- IC50 [46]: 1420 nM
- IC50 [47]: 2710 nM
